Here are results for 2 compounds from BindingDB's records for PubMed 36166643 (University of Santiago De Compostela, 2022).

The experiment in a line: Induction of CYP24A1 (unknown orgin) transcriptional activity trasfected in human MCF7 cells incuabted for 48 hrs by luciferase reporter gene assay. Background: In a reporter assay the amount or activity of a reporter protein is the signal.

The EC50 is the concentration at which the effect is half-maximal. Read a high EC50 as a less potent agent. On to `C=C1/C(=C\C=C(/CCCCCC(C)(C)O)c2cccc(CCCCCC(C)(C)O)c2)C[C@@H](O)C[C@@H]1O`, for which a half-maximal effect (EC50) was put at 5.6 nM.

As to `C=C1/C(=C\C=C\c2cc(CCCCCC(C)(C)O)cc(CCCCCC(C)(C)O)c2)C[C@@H](O)C[C@@H]1O`, the EC50 is 3 nM.
